Experimental data taken from ChEMBL document CHEMBL1152129, “Quantitative structure-activity relationship and complex network approach to monoamine oxidase A and B inhibitors” (J Med Chem, 2008).

Experiments:
[1] = biological target: T1, Amine oxidase [flavin-containing] B (Homo sapiens, UniProt P27338); test: Inhibition of human recombinant MAOB at 100 uM by fluorimetric method
T1 sequence (P27338 whole entry): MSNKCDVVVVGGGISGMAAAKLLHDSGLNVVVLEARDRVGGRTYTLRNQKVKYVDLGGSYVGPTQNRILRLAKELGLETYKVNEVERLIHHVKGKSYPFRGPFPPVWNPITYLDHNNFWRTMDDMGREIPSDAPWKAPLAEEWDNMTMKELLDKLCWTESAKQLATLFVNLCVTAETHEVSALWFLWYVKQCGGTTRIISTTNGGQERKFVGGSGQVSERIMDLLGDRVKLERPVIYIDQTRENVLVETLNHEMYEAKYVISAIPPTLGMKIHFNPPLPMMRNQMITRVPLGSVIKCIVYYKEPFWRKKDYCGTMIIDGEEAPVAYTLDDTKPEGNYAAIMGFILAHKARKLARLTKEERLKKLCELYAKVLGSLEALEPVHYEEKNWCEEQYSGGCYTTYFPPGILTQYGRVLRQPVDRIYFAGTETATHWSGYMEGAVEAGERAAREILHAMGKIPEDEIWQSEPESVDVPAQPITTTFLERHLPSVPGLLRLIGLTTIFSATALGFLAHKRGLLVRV

[2] = biological target: T1, Amine oxidase [flavin-containing] B; test: Inhibition of human liver MAOB
[3] = biological target: T1, Amine oxidase [flavin-containing] B; test: Inhibition of human recombinant MAOB at 1 mM by fluorimetric method; settings: 1000 µM
[4] = biological target: T2, Amine oxidase [flavin-containing] A (Homo sapiens, UniProt P21397); test: Inhibition of human recombinant MAOA by fluorimetric method
T2 sequence (P21397 whole entry): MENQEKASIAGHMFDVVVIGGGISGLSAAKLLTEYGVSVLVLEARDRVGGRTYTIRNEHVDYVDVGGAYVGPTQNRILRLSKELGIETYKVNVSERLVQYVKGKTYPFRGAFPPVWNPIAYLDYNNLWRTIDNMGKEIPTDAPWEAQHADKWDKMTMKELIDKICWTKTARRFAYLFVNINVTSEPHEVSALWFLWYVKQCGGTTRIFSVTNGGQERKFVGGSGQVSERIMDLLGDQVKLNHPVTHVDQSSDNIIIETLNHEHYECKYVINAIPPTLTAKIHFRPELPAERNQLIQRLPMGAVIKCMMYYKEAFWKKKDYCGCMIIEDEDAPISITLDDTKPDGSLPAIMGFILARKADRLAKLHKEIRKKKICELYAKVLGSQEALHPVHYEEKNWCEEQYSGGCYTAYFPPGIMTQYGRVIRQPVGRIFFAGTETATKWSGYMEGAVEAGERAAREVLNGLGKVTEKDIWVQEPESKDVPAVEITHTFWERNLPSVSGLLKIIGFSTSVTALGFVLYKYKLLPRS

[5] = biological target: T1, Amine oxidase [flavin-containing] B
Description: Inhibition of human recombinant MAOB by fluorimetric method

[6] = species on record: Homo sapiens; test: Selectivity ratio of IC50 for human recombinant MAOA to IC50 for human recombinant MAOB
[7] = biological target: T2, Amine oxidase [flavin-containing] A; test: Inhibition of human recombinant MAOA at 100 uM by fluorimetric method
[8] = biological target: T2, Amine oxidase [flavin-containing] A; test: Inhibition of human liver MAOA

NC(N)=N/N=C/c1ccc([N+](=O)[O-])o1 [FURAGUANIDINE]
Activity [1]: Not Active | Activity [2]: Not Active

CC(=O)[C@@]1(O)CC[C@H]2[C@@H]3C[C@H](C)C4=CC(=O)CC[C@]4(C)[C@H]3CC[C@@]21C
Activity [3]: Not Active

O=[N+]([O-])c1ccc(/C=N/n2cnnc2)o1 [FURAZONAL]
Activity [1]: Not Active | Activity [2]: Not Active

CC(=O)COc1ccc2c(oc(=O)c3ccccc32)c1C
IC50 [4]: 2.56 µM | IC50 [5]: 28.1 µM | Ratio IC50 [6]: 0.091

O=[N+]([O-])O[C@@H]1CO[C@H]2[C@@H]1OC[C@@H]2O [ISOSORBIDE MONONITRATE]
Activity [1]: Not Active | Activity [2]: Not Active

COc1c(OCC(C)=O)ccc2c1oc(=O)c1ccccc12
IC50 [4]: 11.9 µM | IC50 [5]: 9.36 µM | Ratio IC50 [6]: 1.27

Cc1cc(=O)oc2c(C)c(OC3CCCCC3=O)ccc12 (stereo unspecified)
IC50 [4]: 0.4 µM | IC50 [5]: 3.87 µM | Ratio IC50 [6]: 0.1

Cc1cc(=O)oc2c(C)c(OC3CCCC3=O)ccc12 (stereo unspecified)
IC50 [4]: 0.00716 µM | IC50 [5]: 10.6 µM | Ratio IC50 [6]: 0.00067

Cc1cc(=O)oc2c(C)c(O)ccc12
IC50 [5]: 71.3 µM | Activity [7]: Not Active

O=NN(CCCl)C(=O)NC[C@@H](O)[C@H](O)CN(N=O)C(=O)NCCCl
Activity [3]: Not Active

CCc1cc(C(N)=S)ccn1 [ETHIONAMIDE]
Activity [1]: Not Active | Activity [2]: Not Active

COc1c2ccc(=O)oc2cc2occ(C)c12
IC50 [4]: 255 µM | IC50 [5]: 260 µM | Ratio IC50 [6]: 0.98

C[C@H]1O[C@@H](O[C@H]2[C@@H](O)C[C@H](O[C@H]3[C@@H](O)C[C@H](O[C@H]4CC[C@@]5(C)[C@H](CC[C@@H]6[C@@H]5CC[C@]5(C)[C@@H](C7=CC(=O)OC7)CC[C@]65O)C4)O[C@@H]3C)O[C@@H]2C)C[C@H](O)[C@@H]1O [DIGITOXIN]
Activity [7]: Not Active | Activity [8]: Not Active | Activity [2]: Not Active

Cc1c(O)ccc2c3c(c(=O)oc12)CCC3
Activity [1]: Not Active | Activity [7]: Not Active

CS(=O)(=O)OC[C@@H]1O[C@H]1[C@@H]1O[C@H]1COS(C)(=O)=O
Activity [3]: Not Active

O=C(Cc1ccc(N(CCCl)CCCl)cc1)NC[C@H](NC(=O)Cc1ccc(N(CCCl)CCCl)cc1)C(=O)O [LONIN 4]
Activity [1]: Not Active | Activity [2]: Not Active

Cc1ncc([N+](=O)[O-])n1CCO [METRONIDAZOLE]
Activity [1]: Not Active | Activity [2]: Not Active

CN1C[C@H](C(=O)N[C@]2(C)O[C@@]3(O)[C@@H]4CCCN4C(=O)[C@H](Cc4ccccc4)N3C2=O)C=C2c3cccc4[nH]cc(c34)C[C@H]21 [ERGOTAMINE]
Activity [3]: Not Active

O=c1[nH]c(=O)n([C@H]2C[C@H](O)[C@@H](CO)O2)cc1F [FLOXURIDINE]
Activity [1]: Not Active | Activity [2]: Not Active

C=C1[C@@H](C)[C@H]2[C@H](Cc3ccccc3)NC(=O)[C@]23OC(=O)/C=C/[C@H](O)CCC[C@@H](C)C/C=C/[C@H]3[C@@H]1O [CYTOCHALASIN B]
Activity [3]: Not Active

COc1c(OCC(C)=O)ccc2c3c(c(=O)oc12)CCC3
IC50 [4]: 0.121 µM | IC50 [5]: 13 µM | Ratio IC50 [6]: 0.0093

CC(C)(S)[C@@H](N)C(=O)O [PENICILLAMINE]
Activity [7]: Not Active | Activity [8]: Not Active | Activity [2]: Not Active

O=NN(CCCl)C(=O)NC1CCCCC1 [LOMUSTINE]
Activity [1]: Not Active | Activity [2]: Not Active

CC1(C)O[C@@H]2C[C@H]3[C@@H]4C[C@H](F)C5=CC(=O)C=C[C@]5(C)[C@@]4(Cl)[C@@H](Cl)C[C@]3(C)[C@]2(C(=O)CO)O1 [FLUCLORONIDE]
Activity [1]: Not Active | Activity [2]: Not Active

C1OC1CN1CCC(C2CCN(CC3CO3)CC2)CC1 (stereo unspecified) [EPIPROPIDINE]
Activity [3]: Not Active

COC(F)(F)C(Cl)Cl [METHOXYFLURANE]
Activity [3]: Not Active

COc1c(O)ccc2cc(N)c(=O)oc12
Activity [1]: Not Active | Activity [7]: Not Active

COc1c(OCC(C)=O)ccc2cc(NC(C)=O)c(=O)oc12
IC50 [4]: 5.31 µM | Activity [1]: Not Active | Ratio IC50 [6]: < 0.53

COc1c2occc2cc2cc(N)c(=O)oc12
IC50 [4]: 12.2 µM | IC50 [5]: 16.5 µM | Ratio IC50 [6]: 0.74
